Assays:
B-Raf V600E = B-Raf V600E (Homo sapiens, UniProt P15056, V600E); assay: B-Raf V600E kinase activity assay (AlphaScreen, biotin-MEK1 substrate); settings: 100 μM ATP, 100 nM biotin-MEK1, 45 minutes at room temperature, read-out: Biochemical activity (IC50 μM) V600E
Procedure, shortened: (§1)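 AlphaScreen detection of phospho-MEK1 uses anti-phospho-MEK1/2 antibody and donor/acceptor beads, incubated 3 h. The kinase step runs 45 min at room temperature with 0.1 ng enzyme, 100 nM biotin-MEK1 and 100 μM ATP in 50 mM HEPES pH 7.0. IC50 is derived from eight compound concentrations.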

CYP1A2 = target: T1, CYP1A2 (Homo sapiens, UniProt P05177); assay: CYP1A2 inhibition (fluorescent substrate CEC); type: in vitro ADME; settings: read-out: Cyp IC50 (μM) 1A2
T1 sequence (P05177 1-516): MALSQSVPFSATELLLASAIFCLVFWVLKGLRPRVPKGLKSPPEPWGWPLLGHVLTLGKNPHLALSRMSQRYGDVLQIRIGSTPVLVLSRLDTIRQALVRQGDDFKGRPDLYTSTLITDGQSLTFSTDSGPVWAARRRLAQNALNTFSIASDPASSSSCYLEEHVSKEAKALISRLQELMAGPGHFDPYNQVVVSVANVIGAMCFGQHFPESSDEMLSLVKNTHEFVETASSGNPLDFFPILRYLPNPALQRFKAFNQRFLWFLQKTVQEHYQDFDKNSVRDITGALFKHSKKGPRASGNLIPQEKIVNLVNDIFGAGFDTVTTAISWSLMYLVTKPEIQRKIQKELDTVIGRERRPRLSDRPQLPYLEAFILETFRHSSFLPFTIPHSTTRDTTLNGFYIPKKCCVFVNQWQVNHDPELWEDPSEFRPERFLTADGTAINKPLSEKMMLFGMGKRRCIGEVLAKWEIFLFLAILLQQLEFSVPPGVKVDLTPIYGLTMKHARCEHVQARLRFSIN
Description: (§2) CYP (Cytochrome P450) enzymes are the major drug metabolizing enzymes present in the liver. The inhibition of CYP enzyme activity (IC50) for each of CYP1A2, CYP2C19, CYP2C9, CYP2D6, CYP3A4(BFC) and CYP3A4(BQ) is determined for compounds, where inhibition of metabolism of a known substrate leads to a decrease in the fluorescence of the metabolized product. The fluorescence of the product is monitored as a function of compound concentration. Compounds are dissolved in dimethyl sulfoxide to a concentration of 100 mM. These are diluted […], into 82 μL of acetonitrile. An 11 μL aliquot of this solution is then added to 204 μL of cofactor mix (1.3% NADPH Regeneration system Solution A, 1.04% NADPH Regeneration system Solution B from BD Biosciences, 5% acetonitrile and 0.05% dimethyl sulfoxide). These are then serially diluted 1:1 (160 μL to 160 μL co-factor mix) for a total of 10 points. A 10 μL aliquot of this final mixture is dispensed into 384 well assay plates and incubated for 10 minutes at 37° C. Enzyme and substrate mix (10 μL; 0.5 pmol CYP1A2/5 μM CEC; 1.0 pmol CYP2C9/75 μM MFC; 0.5 pmol CYP2C19/25 μM CEC; 1.5 pmol CYP2D6/1.5 μM AMMC; 1.0 pmol CYP3A4/50 μM BFC; or 1.0 pmol CYP3A4/40 μM BQ) is added to these assay plates. Assay plates are incubated at 37° C. (CYP1A2-15 min; CYP2C9-45 min; CYP2C19, 2D6 and 3A4-30 min) and read in a Tecan Safire 2 plate reader (CYP1A2, 2C19 and 3A4 409 ex/460 em; CYP2C9 and 2D6 409 ex/530 em). The signal versus compound concentration is used to determine the IC50. The enzymes and substrates for this assay are obtained from BD Biosciences.

CYP2C19 = CYP2C19 (Homo sapiens, UniProt P33261); assay: CYP2C19 inhibition (fluorescent substrate CEC); type: in vitro ADME; settings: read-out: Cyp IC50 (μM) 2C19
Description: as §2

CYP2C9 = CYP2C9 (Homo sapiens, UniProt P11712); assay: CYP2C9 inhibition (fluorescent substrate MFC); type: in vitro ADME; settings: read-out: Cyp IC50 (μM) 2C9
Description: as §2

CYP2D6 = CYP2D6 (Homo sapiens, UniProt P10635); assay: CYP2D6 inhibition (fluorescent substrate AMMC); type: in vitro ADME; settings: read-out: Cyp IC50 (μM) 2D6
Description: as §2

c-Raf-1 = c-Raf-1 (Homo sapiens, UniProt P04049); assay: c-Raf-1 kinase activity assay (AlphaScreen, biotin-MEK1 substrate); settings: 100 μM ATP, 100 nM biotin-MEK1, 45 minutes at room temperature; read-out: Biochemical activity (IC50 μM) c-Raf-1
Procedure, shortened: as §1

B-Raf = B-Raf (Homo sapiens, UniProt P15056); assay: B-Raf kinase activity assay (AlphaScreen, biotin-MEK1 substrate); settings: 100 μM ATP, 100 nM biotin-MEK1, 45 minutes at room temperature; read-out: Biochemical activity (IC50 μM) B-Raf
Procedure, shortened: as §1

Chain of CYP2C19 (P33261 whole entry): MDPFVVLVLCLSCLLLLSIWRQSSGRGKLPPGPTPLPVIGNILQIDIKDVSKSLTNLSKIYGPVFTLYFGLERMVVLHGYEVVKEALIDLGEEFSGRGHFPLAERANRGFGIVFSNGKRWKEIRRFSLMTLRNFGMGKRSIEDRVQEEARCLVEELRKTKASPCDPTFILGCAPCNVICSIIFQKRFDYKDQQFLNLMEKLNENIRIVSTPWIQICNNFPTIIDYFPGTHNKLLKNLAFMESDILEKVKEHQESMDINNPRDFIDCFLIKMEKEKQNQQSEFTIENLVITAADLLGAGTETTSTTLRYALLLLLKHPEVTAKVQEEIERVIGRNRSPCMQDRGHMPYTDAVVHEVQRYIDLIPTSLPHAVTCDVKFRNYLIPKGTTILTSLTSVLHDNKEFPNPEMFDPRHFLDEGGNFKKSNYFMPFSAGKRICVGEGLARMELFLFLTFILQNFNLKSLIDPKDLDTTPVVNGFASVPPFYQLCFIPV
Chain of c-Raf-1 (P04049 whole entry Y340D/Y341D, form open): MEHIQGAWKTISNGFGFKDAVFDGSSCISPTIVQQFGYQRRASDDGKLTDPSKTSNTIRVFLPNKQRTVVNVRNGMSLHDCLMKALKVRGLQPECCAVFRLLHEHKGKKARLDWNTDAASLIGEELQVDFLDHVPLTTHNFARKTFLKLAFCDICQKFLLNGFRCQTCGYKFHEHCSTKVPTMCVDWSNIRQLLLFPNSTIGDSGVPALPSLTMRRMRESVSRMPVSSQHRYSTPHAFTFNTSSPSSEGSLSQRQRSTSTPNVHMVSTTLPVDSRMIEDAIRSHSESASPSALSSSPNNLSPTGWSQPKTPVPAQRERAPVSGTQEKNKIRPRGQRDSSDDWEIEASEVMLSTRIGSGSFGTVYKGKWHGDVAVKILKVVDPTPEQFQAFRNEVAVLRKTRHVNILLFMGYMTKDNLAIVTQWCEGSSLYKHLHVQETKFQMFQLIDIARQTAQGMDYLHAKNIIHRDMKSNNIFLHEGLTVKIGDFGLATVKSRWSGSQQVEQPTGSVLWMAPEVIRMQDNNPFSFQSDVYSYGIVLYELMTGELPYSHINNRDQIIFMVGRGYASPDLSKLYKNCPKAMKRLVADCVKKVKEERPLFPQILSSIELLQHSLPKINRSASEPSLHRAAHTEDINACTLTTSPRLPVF
Chain of B-Raf (P15056 whole entry): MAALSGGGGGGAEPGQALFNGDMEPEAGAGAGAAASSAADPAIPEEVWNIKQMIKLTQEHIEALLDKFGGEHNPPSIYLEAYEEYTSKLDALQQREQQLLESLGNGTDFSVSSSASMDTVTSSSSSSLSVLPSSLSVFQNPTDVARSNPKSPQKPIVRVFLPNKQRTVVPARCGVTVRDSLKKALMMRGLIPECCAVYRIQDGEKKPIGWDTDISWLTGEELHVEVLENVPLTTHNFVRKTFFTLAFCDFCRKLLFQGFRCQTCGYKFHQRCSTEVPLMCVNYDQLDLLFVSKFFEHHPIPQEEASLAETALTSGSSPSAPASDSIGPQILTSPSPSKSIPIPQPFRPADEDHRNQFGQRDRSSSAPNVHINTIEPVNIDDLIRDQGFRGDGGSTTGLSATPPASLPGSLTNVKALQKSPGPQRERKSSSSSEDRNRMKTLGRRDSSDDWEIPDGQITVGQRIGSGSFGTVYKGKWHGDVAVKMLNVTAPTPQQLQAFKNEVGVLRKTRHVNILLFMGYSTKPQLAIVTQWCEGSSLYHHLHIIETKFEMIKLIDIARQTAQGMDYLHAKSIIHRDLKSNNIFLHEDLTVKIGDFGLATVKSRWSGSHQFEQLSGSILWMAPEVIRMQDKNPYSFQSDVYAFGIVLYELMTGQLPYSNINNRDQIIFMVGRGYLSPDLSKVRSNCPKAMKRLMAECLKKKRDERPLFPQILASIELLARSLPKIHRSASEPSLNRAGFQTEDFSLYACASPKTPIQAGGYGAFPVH
Chain of B-Raf V600E (P15056 whole entry V600E): as the sequence (P15056 whole entry) above, with V600E counted along it
Chain of CYP2D6 (P10635 whole entry): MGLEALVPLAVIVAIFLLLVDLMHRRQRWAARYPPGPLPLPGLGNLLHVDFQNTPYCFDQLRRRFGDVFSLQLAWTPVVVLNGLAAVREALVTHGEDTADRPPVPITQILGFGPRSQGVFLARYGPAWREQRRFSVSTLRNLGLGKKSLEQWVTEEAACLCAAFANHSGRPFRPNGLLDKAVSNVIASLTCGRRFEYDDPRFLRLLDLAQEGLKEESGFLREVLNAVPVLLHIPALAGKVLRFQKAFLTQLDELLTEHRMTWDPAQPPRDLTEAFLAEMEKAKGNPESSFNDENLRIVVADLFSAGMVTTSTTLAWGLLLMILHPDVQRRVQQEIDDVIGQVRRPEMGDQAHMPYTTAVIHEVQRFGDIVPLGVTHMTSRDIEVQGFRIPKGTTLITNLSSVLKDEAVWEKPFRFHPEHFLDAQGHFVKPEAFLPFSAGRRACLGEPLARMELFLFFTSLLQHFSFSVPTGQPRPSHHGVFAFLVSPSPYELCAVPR
Chain of CYP2C9 (P11712 whole entry): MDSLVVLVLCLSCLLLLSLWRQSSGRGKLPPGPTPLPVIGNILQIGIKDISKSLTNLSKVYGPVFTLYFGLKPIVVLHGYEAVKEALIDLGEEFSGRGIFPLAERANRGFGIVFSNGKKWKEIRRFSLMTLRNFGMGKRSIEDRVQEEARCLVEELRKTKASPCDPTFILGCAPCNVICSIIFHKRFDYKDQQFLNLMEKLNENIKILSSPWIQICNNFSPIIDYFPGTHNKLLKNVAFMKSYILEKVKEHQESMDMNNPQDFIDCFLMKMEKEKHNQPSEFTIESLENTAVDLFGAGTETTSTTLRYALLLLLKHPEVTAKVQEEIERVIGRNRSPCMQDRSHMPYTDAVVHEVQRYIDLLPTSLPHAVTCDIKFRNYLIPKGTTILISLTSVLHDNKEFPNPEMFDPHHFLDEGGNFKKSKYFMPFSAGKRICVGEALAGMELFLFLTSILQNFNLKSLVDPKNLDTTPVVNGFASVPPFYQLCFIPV

| SMILES | IC50 (B-Raf V600E) | IC50 (CYP1A2) | IC50 (CYP2C19) | IC50 (CYP2C9) | IC50 (CYP2D6) | IC50 (c-Raf-1) | IC50 (B-Raf) |
| --- | --- | --- | --- | --- | --- | --- | --- |
| CCCS(=O)(=O)Nc1ccc(F)c(C(=O)c2c[nH]c3ncc(-c4ccc5cncnc5c4)cc23)c1F [P-0025, Propane-1-sulfonic acid [2,4-difluoro-3-(5-quinazolin-7-yl-1H-pyrrolo[2,3-b]pyridine-3-carbonyl)-phenyl]-amide] | < 0.1 µM | > 10 µM | > 10 µM | 5 to 10 µM | > 10 µM | < 0.1 µM | < 0.1 µM |
| CCCS(=O)(=O)Nc1ccc(F)c(C(=O)c2c[nH]c3ncc(-c4cnn(C5CCNCC5)c4)cc23)c1F [P-1002, Propane-1-sulfonic acid {2,4-difluoro-3-[5-(1-piperidin-4-yl-1H-pyrazol-4-yl)-1H-pyrrolo[2,3-b]pyridine-3-carbonyl]-phenyl}-amide] | < 0.1 µM | > 10 µM | > 10 µM | > 10 µM | > 10 µM | < 0.1 µM | < 0.1 µM |
| O=C(c1c(F)ccc(NS(=O)(=O)c2ccc(C(F)(F)F)cc2)c1F)c1c[nH]c2ncc(-c3cnn(C4CCNCC4)c3)cc12 [P-1004, N-{2,4-Difluoro-3-[5-(1-piperidin-4-yl-1H-pyrazol-4-yl)-1H-pyrrolo[2,3-b]pyridine-3-carbonyl]-phenyl}-4-trifluoromethyl-benzenesulfonamide] | < 0.1 µM | > 10 µM | > 10 µM | > 10 µM | > 10 µM | < 0.1 µM | < 0.1 µM |
| CCCS(=O)(=O)Nc1ccc(F)c(C(=O)c2c[nH]c3ncc(-c4csc(-n5ccnc5C)n4)cc23)c1F [P-1101, Propane-1-sulfonic acid (2,4-difluoro-3-{5-[2-(2-methyl-imidazol-1-yl)-thiazol-4-yl]-1H-pyrrolo[2,3-b]pyridine-3-carbonyl}-phenyl)-amide] | < 0.1 µM | > 10 µM | > 10 µM | < 5 µM | > 10 µM | < 0.1 µM | < 0.1 µM |
| Cc1ccc(-c2cnc3[nH]cc(C(=O)c4c(F)ccc(NS(=O)(=O)c5cc(F)ccc5F)c4F)c3c2)cn1 [P-1408, N-{2,4-Difluoro-3-[5-(6-methyl-pyridin-3-yl)-1H-pyrrolo[2,3-b]pyridine-3-carbonyl]-phenyl}-2,5-difluoro-benzenesulfonamide] | < 0.1 µM | > 10 µM | > 10 µM | 5 to 10 µM | > 10 µM | < 0.1 µM | < 0.1 µM |
| Cc1ncc(-c2cnc3[nH]cc(C(=O)c4c(F)ccc(NS(=O)(=O)c5cc(F)ccc5F)c4F)c3c2)cn1 [P-1503, N-{2,4-Difluoro-3-[5-(2-methyl-pyrimidin-5-yl)-1H-pyrrolo[2,3-b]pyridine-3-carbonyl]-phenyl}-2,5-difluoro-benzenesulfonamide] | < 0.1 µM | > 10 µM | > 10 µM | > 10 µM | > 10 µM | < 0.1 µM | < 0.1 µM |

Reference: US9440969B2, “Compounds and methods for kinase modulation, and indications therefor” (PLEXXIKON INC., priority 2009, dated 2016)
